Assay results published in patent US6706663B2, “Herbicidal 3-heterocyclic substituted benzisothiazole and benzisoxazole compounds” (Wyeth, priority 2000, dated 2004).

Columns and labels:
[1] = tested on: ECHCG (Echinochloa crus-galli); experiment: Postemergence herbicidal evaluation; type: in vivo, (L.) Beau
How it was run: (§1)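 Seedlings grown about two weeks in flats, sprayed, then kept under standard greenhouse care. Rated visually 4–5 weeks after treatment on a 0–9 scale (stand, vigour, malformation, size, chlorosis, overall appearance) relative to untreated control; repeat tests averaged.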

[2] = tested on: IPOHE (Ipomoea hederacea); experiment: Postemergence herbicidal evaluation; type: in vivo, (L.) Jacq.
How it was run: as §1

[3] = tested on: AMBEL (Ambrosia artemisifolia); experiment: Preemergence herbicidal evaluation; type: in vivo, L.; details: preemergence, rated 4-5 weeks after treatment
How it was run: (§2)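 Applied before emergence as an aqueous acetone spray over seeded soil. Read-out: 0–9 visual rating covering plant stand, vigor, size, chlorosis, malformation and overall appearance compared with control, taken 4–5 weeks after spraying.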

[4] = tested on: CHEAL (Chenopodium album); experiment: Preemergence herbicidal evaluation; type: in vivo, L.; details: preemergence, rated 4-5 weeks after treatment
How it was run: as §2

[5] = tested on: CASOB (Cassia obtusifolia); experiment: Preemergence herbicidal evaluation; type: in vivo, L.; details: preemergence, rated 4-5 weeks after treatment
How it was run: as §2

ZEAMX (Corn, Field) [6] = experiment: Postemergence herbicidal evaluation; type: in vivo, Zea mays, L.
How it was run: as §1

ZEAMX (Corn, Field) [7] = experiment: Preemergence herbicidal evaluation; type: in vivo, Zea mays, L.; details: preemergence, rated 4-5 weeks after treatment
[8] = tested on: GLXMAW (Soybean, Williams); experiment: Postemergence herbicidal evaluation; type: in vivo, Glycine max, (L.) Merr. cv Williams
How it was run: as §1

[9] = tested on: ECHORC (Echinochloa oryzoides); experiment: Flooded paddy, preemergence weed control; type: in vivo, Echinochloa oryzoides (Ard.) Fritsch.; details: rated 3-4 weeks after treatment, 0-9 rating scale
How it was run: (§3)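 Ratings of 0-9 reflect visual comparison with a control for stand, vigor, deformity, size, chlorosis and overall look. Propagules were placed in shallow silt loam (top 0.5 cm) under a continuous 1.5–3 cm flood and grown in the greenhouse.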

GALAP (Galium aparine) [10] = experiment: Postemergence herbicidal evaluation; type: in vivo
How it was run: as §1

[11] = tested on: ABUTH (Abutilon theophrasti); experiment: Postemergence herbicidal evaluation; type: in vivo, Medic.
How it was run: as §1

GALAP (Galium aparine) [12] = experiment: Preemergence herbicidal evaluation; type: in vivo; details: preemergence, rated 4-5 weeks after treatment
How it was run: as §2

CYPIR (Cyperus iria) = experiment: Flooded paddy, preemergence weed control; type: in vivo; details: rated 3-4 weeks after treatment, 0-9 rating scale
How it was run: as §3

[13] = tested on: GLXMAW (Soybean, Williams); experiment: Preemergence herbicidal evaluation; type: in vivo, Glycine max, (L.) Merr. cv Williams; details: preemergence, rated 4-5 weeks after treatment
[14] = tested on: SAGPY (Sagittaria pygmaea); experiment: Flooded paddy, preemergence weed control; type: in vivo, L.; details: rated 3-4 weeks after treatment, 0-9 rating scale
How it was run: as §3

[15] = tested on: AMBEL (Ambrosia artemisifolia); experiment: Postemergence herbicidal evaluation; type: in vivo, L.
How it was run: as §1

[16] = tested on: CHEAL (Chenopodium album); experiment: Postemergence herbicidal evaluation; type: in vivo, L.
How it was run: as §1

[17] = tested on: CASOB (Cassia obtusifolia); experiment: Postemergence herbicidal evaluation; type: in vivo, L.
How it was run: as §1

ORYSAT (Rice, Tebonnet) = experiment: Preemergence herbicidal evaluation; type: in vivo, Oryza sativa, (L.) Tebonnet; details: preemergence, rated 4-5 weeks after treatment
[18] = tested on: TRZAWR (Wheat, Winter, cv Riband); experiment: Preemergence herbicidal evaluation; type: in vivo, Triticum aestivum; details: preemergence, rated 4-5 weeks after treatment
How it was run: as §2

[19] = tested on: CYPSE (Cyperus serotinus); experiment: Flooded paddy, preemergence weed control; type: in vivo, Rottb.; details: rated 3-4 weeks after treatment, 0-9 rating scale
How it was run: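 Herbicidal effect was scored visually on a 0–9 scale against an untreated control 3–4 weeks after treatment. Compounds were applied preemergence as 50/50 v/v aqueous/acetone mixtures into flood water (1.5–3 cm deep over silt loam), at roughly 0.0080 to 0.1250 kg/ha active ingredient.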

[20] = tested on: IPOHE (Ipomoea hederacea); experiment: Preemergence herbicidal evaluation; type: in vivo, (L.) Jacq.; details: preemergence, rated 4-5 weeks after treatment

Compound: Cc1ccsc1-c1nsc2ccc(-n3c(=O)cc(C(F)(F)F)n(C)c3=O)cc12 [Compound 4, 1-methyl-3-[3-(3-methyl-2-thienyl)-1,2-benzisothiazol-5-yl]-6-(trifluoromethyl)uracil]
- Postemergence herbicidal rating, ECHCG ([1]; rate 0.0320 kg/ha): 2.0
- Postemergence herbicidal rating, ECHCG ([1]; rate 0.0620 kg/ha): 2.8
- Postemergence herbicidal rating, ECHCG ([1]; rate 0.1250 kg/ha): 1.7
- Postemergence herbicidal rating, IPOHE ([2]; rate 0.0320 kg/ha): 8.6
- Postemergence herbicidal rating, IPOHE ([2]; rate 0.0620 kg/ha): 9.0
- Postemergence herbicidal rating, IPOHE ([2]; rate 0.1250 kg/ha): 9.0
- AMBEL preemergence herbicidal rating ([3]; Rate 0.0620 kg/ha): 5.9
- AMBEL preemergence herbicidal rating ([3]; Rate 0.1250 kg/ha): 7.3
- AMBEL preemergence herbicidal rating ([3]; Rate 0.2500 kg/ha): 8.9
- CHEAL preemergence herbicidal rating ([4]; Rate 0.0620 kg/ha): 9.0
- CHEAL preemergence herbicidal rating ([4]; Rate 0.1250 kg/ha): 9.0
- CHEAL preemergence herbicidal rating ([4]; Rate 0.2500 kg/ha): 8.0
- CASOB preemergence herbicidal rating ([5]; Rate 0.0620 kg/ha): 1.3
- CASOB preemergence herbicidal rating ([5]; Rate 0.1250 kg/ha): 3.4
- CASOB preemergence herbicidal rating ([5]; Rate 0.2500 kg/ha): 5.0
- Postemergence herbicidal rating, ZEAMX (ZEAMX (Corn, Field) [6]; rate 0.0320 kg/ha): 4.4
- Postemergence herbicidal rating, ZEAMX (ZEAMX (Corn, Field) [6]; rate 0.0620 kg/ha): 4.5
- Postemergence herbicidal rating, ZEAMX (ZEAMX (Corn, Field) [6]; rate 0.1250 kg/ha): 5.0
- ZEAMX preemergence herbicidal rating (ZEAMX (Corn, Field) [7]; Rate 0.0620 kg/ha): 3.2
- ZEAMX preemergence herbicidal rating (ZEAMX (Corn, Field) [7]; Rate 0.1250 kg/ha): 4.2
- ZEAMX preemergence herbicidal rating (ZEAMX (Corn, Field) [7]; Rate 0.2500 kg/ha): 5.4
- Postemergence herbicidal rating, GLXMAW ([8]; rate 0.0320 kg/ha): 6.2
- Postemergence herbicidal rating, GLXMAW ([8]; rate 0.0620 kg/ha): 6.8
- Postemergence herbicidal rating, GLXMAW ([8]; rate 0.1250 kg/ha): 7.3
- herbicidal rating, ECHORC ([9]; rate 0.0080 kg/ha): 4.0
- herbicidal rating, ECHORC ([9]; rate 0.0320 kg/ha): 9.0
- herbicidal rating, ECHORC ([9]; rate 0.1250 kg/ha): 9.0
- Postemergence herbicidal rating, GALAP (GALAP (Galium aparine) [10]; rate 0.0320 kg/ha): 3.3
- Postemergence herbicidal rating, GALAP (GALAP (Galium aparine) [10]; rate 0.0620 kg/ha): 6.0
- Postemergence herbicidal rating, GALAP (GALAP (Galium aparine) [10]; rate 0.1250 kg/ha): 8.3
- Postemergence herbicidal rating, ABUTH ([11]; rate 0.0320 kg/ha): 9.0
- Postemergence herbicidal rating, ABUTH ([11]; rate 0.0620 kg/ha): 9.0
- Postemergence herbicidal rating, ABUTH ([11]; rate 0.1250 kg/ha): 9.0
- GALAP preemergence herbicidal rating (GALAP (Galium aparine) [12]; Rate 0.0620 kg/ha): 5.0
- GALAP preemergence herbicidal rating (GALAP (Galium aparine) [12]; Rate 0.1250 kg/ha): 8.0
- GALAP preemergence herbicidal rating (GALAP (Galium aparine) [12]; Rate 0.2500 kg/ha): 9.0
- herbicidal rating, CYPIR (CYPIR (Cyperus iria); rate 0.0080 kg/ha): 2.0
- herbicidal rating, CYPIR (CYPIR (Cyperus iria); rate 0.0320 kg/ha): 9.0
- herbicidal rating, CYPIR (CYPIR (Cyperus iria); rate 0.1250 kg/ha): 9.0
- GLXMAW preemergence herbicidal rating ([13]; Rate 0.0620 kg/ha): 2.7
- GLXMAW preemergence herbicidal rating ([13]; Rate 0.1250 kg/ha): 4.4
- GLXMAW preemergence herbicidal rating ([13]; Rate 0.2500 kg/ha): 6.0
- herbicidal rating, SAGPY ([14]; rate 0.0080 kg/ha): 0.0
- herbicidal rating, SAGPY ([14]; rate 0.0320 kg/ha): 2.0
- herbicidal rating, SAGPY ([14]; rate 0.1250 kg/ha): 5.5
- Postemergence herbicidal rating, AMBEL ([15]; rate 0.0320 kg/ha): 8.1
- Postemergence herbicidal rating, AMBEL ([15]; rate 0.0620 kg/ha): 8.3
- Postemergence herbicidal rating, AMBEL ([15]; rate 0.1250 kg/ha): 9.0
- Postemergence herbicidal rating, CHEAL ([16]; rate 0.0320 kg/ha): 9.0
- Postemergence herbicidal rating, CHEAL ([16]; rate 0.0620 kg/ha): 9.0
- Postemergence herbicidal rating, CHEAL ([16]; rate 0.1250 kg/ha): 9.0
- Postemergence herbicidal rating, CASOB ([17]; rate 0.0320 kg/ha): 5.2
- Postemergence herbicidal rating, CASOB ([17]; rate 0.0620 kg/ha): 6.2
- Postemergence herbicidal rating, CASOB ([17]; rate 0.1250 kg/ha): 9.0
- ORYSAT preemergence herbicidal rating (ORYSAT (Rice, Tebonnet); Rate 0.0620 kg/ha): 1.4
- ORYSAT preemergence herbicidal rating (ORYSAT (Rice, Tebonnet); Rate 0.1250 kg/ha): 1.9
- ORYSAT preemergence herbicidal rating (ORYSAT (Rice, Tebonnet); Rate 0.2500 kg/ha): 2.8
- TRZAWR preemergence herbicidal rating ([18]; Rate 0.0620 kg/ha): 1.2
- TRZAWR preemergence herbicidal rating ([18]; Rate 0.1250 kg/ha): 2.5
- TRZAWR preemergence herbicidal rating ([18]; Rate 0.2500 kg/ha): 4.3
- herbicidal rating, CYPSE ([19]; rate 0.0080 kg/ha): 0.0
- herbicidal rating, CYPSE ([19]; rate 0.0320 kg/ha): 6.5
- herbicidal rating, CYPSE ([19]; rate 0.1250 kg/ha): 9.0
- IPOHE preemergence herbicidal rating ([20]; Rate 0.0620 kg/ha): 4.7
- IPOHE preemergence herbicidal rating ([20]; Rate 0.1250 kg/ha): 6.3
- IPOHE preemergence herbicidal rating ([20]; Rate 0.2500 kg/ha): 7.6
